Experiment [1] deals with T1, human BRD4 bromodomain II (Homo sapiens, UniProt O60885).
T1 construct: human BRD4 bromodomain II [based on Genbank NM_058243, residues 349-460]; host or cells: E. coli
Briefly: Bromodomain binding assay (AlphaScreen), BRD4 BDII. The method, boiled down: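 First, His6-tagged BRD4 bromodomain (BDI residues 44-170 or BDII residues 349-460) is incubated with compound for 30 min at room temperature. Next the biotinylated H4 peptide is added for 30 min, then donor and acceptor beads, with 60 min in the dark before AlphaScreen reading and IC50 fitting.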
In general terms: In Alpha technology, singlet oxygen from a donor bead excites a nearby acceptor bead.

For experiment [2], the system named is human SKM-1 acute myeloid leukemia cells. Briefly: SKM-1 antiproliferation cell-based assay (ATPlite). To be noted: Homo sapiens. The method in brief:
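Log-phase cells in RPMI 1640/15% FBS were seeded at 34722 cells/mL and exposed for 4 days to nine-concentration DMSO serial dilutions in triplicate. Viability was read as ATP luminescence (ATPlite 1step), and IC50 values came from variable-slope non-linear regression.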

Where [3] appears, read: AlphaScreen assay, Table C2, read-out: BRD4 BDII IC50.
Where [4] appears, read: SKM-1, 96 h, SKM-1 antiproliferation assay, 4 days, Table C2.

Experimental findings from patent publication US20250179059A1 (The Regents of the University of California, priority 2021, published 2025) are described below.

SMILES strings stand for the structures. pIC50: −log10 of the molar value. Read-outs that look alike come from different tables or passages of the source.

Broadly, the pIC50 is the negative decadic logarithm of the IC50, by convention in mol/L. The GI50 is the concentration that inhibits growth by half. High values mean less potent growth inhibition, low ones more potent growth inhibition. In the case of `Cc1ncc(-c2cc(F)cc(-c3ccc(-n4ccn(C)c4=O)c(Cl)c3)c2O)cc1N1CC(C)(O)C2(CC2)C1` (stereo not drawn) [Example 829, 1-(3-chloro-5′-fluoro-2′-hydroxy-3′-(5-(7-hydroxy-7-methyl-5-azaspiro[2.4]heptan-5-yl)-6-methylpyridin-3-yl)-[1,1′-biphenyl]-4-yl)-3-methyl-1H-imidazol-2(3H)-one], the negative-log IC50 (pIC50) in experiment [1] (setting [3]) was 9.00 to 11.00. Moreover, the 50% growth inhibitory concentration (GI50) in experiment [2] (setting [4]) is 0.3 to 30 nM.
The like results for `COCC(C)(C)N1CCN(c2cccc(-c3cc(F)cc(-c4ccc(-n5ccn(C)c5=O)c(Cl)c4)c3O)c2)CC1` [Example 830, 1-(3-chloro-5′-fluoro-2′-hydroxy-3″-(4-(1-methoxy-2-methylpropan-2-yl)piperazin-1-yl)-[1,1′:3′,1″-terphenyl]-4-yl)-3-methyl-1H-imidazol-2(3H)-one] were, in that order, 8.00 to 9.00 and 0.3 to 30 nM.
The like results for `CC(C)N1CCN(c2cc(-c3cc(F)cc(-c4ccc(-n5ccn(C)c5=O)c(Cl)c4)c3O)cnc2C(F)F)CC1` [Example 831, 1-(3-chloro-3′-(6-(difluoromethyl)-5-(4-isopropylpiperazin-1-yl)pyridin-3-yl)-5′-fluoro-2′-hydroxy-[1,1′-biphenyl]-4-yl)-3-methyl-1H-imidazol-2(3H)-one] were, in that order, 8.00 to 9.00 and 0.3 to 30 nM.
Take `Cn1ccn(-c2ccc(-c3cc(F)cc(-c4cnnc(N5CC[C@@](C)(O)C5)c4)c3O)cc2Cl)c1=O` [Example 832, (R)-1-(3-chloro-5′-fluoro-2′-hydroxy-3′-(6-(3-hydroxy-3-methylpyrrolidin-1-yl)pyridazin-4-yl)-[1,1′-biphenyl]-4-yl)-3-methyl-1H-imidazol-2(3H)-one]: the negative-log IC50 (pIC50) in experiment [1] (setting [3]) is 9.00 to 11.00. Moreover, in experiment [2] (setting [4]), the 50% growth inhibitory concentration (GI50) is 0.3 to 30 nM.
`COc1ncc(-c2cc(F)cc(-c3ccc(-n4ccn(C)c4=O)c(Cl)c3)c2O)cc1N1CC(C)(O)C2(CC2)C1` (stereo not drawn) [Example 833, 1-(3-chloro-5′-fluoro-2′-hydroxy-3′-(5-(7-hydroxy-7-methyl-5-azaspiro[2.4]heptan-5-yl)-6-methoxypyridin-3-yl)-[1,1′-biphenyl]-4-yl)-3-methyl-1H-imidazol-2(3H)-one]: in experiment [1] (setting [3]), the negative-log IC50 (pIC50) was 8.00 to 9.00. The same molecule registered a 50% growth inhibitory concentration (GI50) in experiment [2] (setting [4]) of 30 to 300 nM.
The like results for `COc1ncc(-c2cc(F)cc(-c3ccc(-n4ccn(C)c4=O)c(Cl)c3)c2O)cc1N1CC(C)(O)C1` [Example 834, 1-(3-chloro-5′-fluoro-2′-hydroxy-3′-(5-(3-hydroxy-3-methylazetidin-1-yl)-6-methoxypyridin-3-yl)-[1,1′-biphenyl]-4-yl)-3-methyl-1H-imidazol-2(3H)-one] were, in that order, 8.00 to 9.00 and 0.3 to 30 nM.
For `Cc1ncc(-c2cc(F)cc(-c3ccc(-n4ccn(C)c4=O)c(Cl)c3)c2O)cc1N1CC2CCC(C1)N2C(C)C` [Example 835, 1-(3-chloro-5′-fluoro-2′-hydroxy-3′-(5-(8-isopropyl-3,8-diazabicyclo[3.2.1]octan-3-yl)-6-methylpyridin-3-yl)-[1,1′-biphenyl]-4-yl)-3-methyl-1H-imidazol-2(3H)-one], the pIC50 in experiment [1] (setting [3]) was 8.00 to 9.00. Also, in experiment [2] (setting [4]), the GI50 lay within 0.3 to 30 nM.
In the case of `COc1ncc(-c2cc(F)cc(-c3ccc(-n4ccn(C)c4=O)c(Cl)c3)c2O)cc1N1CC2CCC(C1)N2C(C)C` [Example 836, 1-(3-chloro-5′-fluoro-2′-hydroxy-3′-(5-(8-isopropyl-3,8-diazabicyclo[3.2.1]octan-3-yl)-6-methoxypyridin-3-yl)-[1,1′-biphenyl]-4-yl)-3-methyl-1H-imidazol-2(3H)-one], the negative-log IC50 (pIC50) in experiment [1] (setting [3]) was 8.00 to 9.00. For the same molecule, in experiment [2] (setting [4]), the concentration for 50% growth inhibition (GI50) was 0.3 to 30 nM.
The like results for `Cn1ccn(-c2ccc(-c3cc(F)cc(-c4cnnc(N5CC[C@](C)(O)C5)c4)c3O)cc2Cl)c1=O` [Example 837, (S)-1-(3-chloro-5′-fluoro-2′-hydroxy-3′-(6-(3-hydroxy-3-methylpyrrolidin-1-yl)pyridazin-4-yl)-[1,1′-biphenyl]-4-yl)-3-methyl-1H-imidazol-2(3H)-one] were, in that order, 9.00 to 11.00 and 30 to 300 nM.
Take `COc1ncc(-c2cc(F)cc(-c3ccc(-n4ccn(C)c4=O)c(Cl)c3)c2O)cc1N1CC(O)(CO)C1` [Example 838, 1-(3-chloro-5′-fluoro-2′-hydroxy-3′-(5-(3-hydroxy-3-(hydroxymethyl)azetidin-1-yl)-6-methoxypyridin-3-yl)-[1,1′-biphenyl]-4-yl)-3-methyl-1H-imidazol-2(3H)-one]: the negative-log IC50 (pIC50) in experiment [1] (setting [3]) is 9.00 to 11.00. The GI50 in experiment [2] (setting [4]) is 30 to 300 nM.
The like results for `Cc1ncc(-c2cc(F)cc(-c3ccc(-n4ccn(C)c4=O)c(Cl)c3)c2O)cc1N1CC(O)(CO)C1` [Example 839, 1-(3-chloro-5′-fluoro-2′-hydroxy-3′-(5-(3-hydroxy-3-(hydroxymethyl)azetidin-1-yl)-6-methylpyridin-3-yl)-[1,1′-biphenyl]-4-yl)-3-methyl-1H-imidazol-2(3H)-one] were, in that order, 9.00 to 11.00 and 0.3 to 30 nM.
The like results for `Cn1ccn(-c2ccc(-c3cc(F)cc(-c4ccnc(N5CCCN(C(C)(C)C)CC5)c4)c3O)cc2Cl)c1=O` [Example 840, 1-(3′-(2-(4-(tert-butyl)-1,4-diazepan-1-yl)pyridin-4-yl)-3-chloro-5′-fluoro-2′-hydroxy-[1,1′-biphenyl]-4-yl)-3-methyl-1H-imidazol-2(3H)-one] were, in that order, 9.00 to 11.00 and 0.3 to 30 nM.
The like results for `Cc1ccc(-c2cc(F)cc(-c3ccc(-n4ccn(C)c4=O)c(Cl)c3)c2O)cc1N1CC(O)(CO)C1` [Example 841, 1-(3-chloro-5′-fluoro-2′-hydroxy-3″-(3-hydroxy-3-(hydroxymethyl)azetidin-1-yl)-4″-methyl-[1,1′:3′,1″-terphenyl]-4-yl)-3-methyl-1H-imidazol-2(3H)-one] were, in that order, 8.00 to 9.00 and 30 to 300 nM.
Consider `Cn1ccn(-c2ccc(-c3cc(F)cc(-c4ccc(Cl)c(N5CC[C@@](C)(O)C5)c4)c3O)cc2Cl)c1=O` [Example 842, (R)-1-(3,4″-dichloro-5′-fluoro-2′-hydroxy-3″-(3-hydroxy-3-methylpyrrolidin-1-yl)-[1,1′:3′,1″-terphenyl]-4-yl)-3-methyl-1H-imidazol-2(3H)-one], for which the pIC50 in experiment [1] (setting [3]) is 8.00 to 9.00. In addition, the GI50 in experiment [2] (setting [4]) fell in the range of 30 to 300 nM.
Consider `Cc1ncc(-c2cc(F)cc(-c3ccc(-n4ccn(C)c4=O)c(Cl)c3)c2O)cc1N1CC(C)(O)C1` [Example 843, 1-(3-chloro-5′-fluoro-2′-hydroxy-3′-(5-(3-hydroxy-3-methylazetidin-1-yl)-6-methylpyridin-3-yl)-[1,1′-biphenyl]-4-yl)-3-methyl-1H-imidazol-2(3H)-one], for which the pIC50 in experiment [1] (setting [3]) is 9.00 to 11.00. In experiment [2] (setting [4]), the GI50 was 0.3 to 30 nM.
For `Cc1ncc(-c2cc(F)cc(-c3ccc(-n4ccn(C)c4=O)c(Cl)c3)c2O)cc1N1CCCN(C(C)(C)C)CC1` [Example 844, 1-(3′-(5-(4-(tert-butyl)-1,4-diazepan-1-yl)-6-methylpyridin-3-yl)-3-chloro-5′-fluoro-2′-hydroxy-[1,1′-biphenyl]-4-yl)-3-methyl-1H-imidazol-2(3H)-one], the negative-log IC50 (pIC50) in experiment [1] (setting [3]) is 8.00 to 9.00. This molecule showed a concentration for 50% growth inhibition (GI50) in experiment [2] (setting [4]) of 0.3 to 30 nM.
The like results for `Cc1ccc(-c2cc(F)cc(-c3ccc(-n4ccn(C)c4=O)c(Cl)c3)c2O)cc1N1CC(C)(O)C1` [Example 845, 1-(3-chloro-5′-fluoro-2′-hydroxy-3″-(3-hydroxy-3-methylazetidin-1-yl)-4″-methyl-[1,1′:3′,1″-terphenyl]-4-yl)-3-methyl-1H-imidazol-2(3H)-one] were, in that order, 8.00 to 9.00 and 30 to 300 nM.
The like results for `CC(C)N1C2CCC1CN(c1cccc(-c3cc(F)cc(-c4ccc(-n5ccn(C)c5=O)c(Cl)c4)c3O)c1)C2` [Example 846, 1-(3-chloro-5′-fluoro-2′-hydroxy-338-(8-isopropyl-3,8-diazabicyclo[3.2.1]octan-3-yl)-[1,1′:3′,1″-terphenyl]-4-yl)-3-methyl-1H-imidazol-2(3H)-one] were, in that order, 9.00 to 11.00 and 0.3 to 30 nM.
For the molecule `COc1ncc(-c2cc(F)cc(-c3ccc(-n4ccn(C)c4=O)c(Cl)c3)c2O)cc1N1CCN(C(C)(C)C2CC2)CC1` [Example 847, 1-(3-chloro-3′-(5-(4-(2-cyclopropylpropan-2-yl)piperazin-1-yl)-6-methoxypyridin-3-yl)-5′-fluoro-2′-hydroxy-[1,1′-biphenyl]-4-yl)-3-methyl-1H-imidazol-2(3H)-one], the negative logarithm of the IC50 (pIC50) in experiment [1] (setting [3]) is 8.00 to 9.00. The same molecule displayed a GI50 in experiment [2] (setting [4]) of 0.3 to 30 nM.
The like results for `CCc1ncc(-c2cc(F)cc(-c3ccc(-n4ccn(C)c4=O)c(Cl)c3)c2O)cc1N1CCN(C(C)(C)C)CC1` [Example 848, 1-(3′-(5-(4-(tert-butyl)piperazin-1-yl)-6-ethylpyridin-3-yl)-3-chloro-5′-fluoro-2′-hydroxy-[1,1′-biphenyl]-4-yl)-3-methyl-1H-imidazol-2(3H)-one] were, in that order, 7.00 to 8.00 and 0.3 to 30 nM.
As for `Cn1ccn(-c2ccc(-c3cc(F)cc(-c4cnc(C5CC5)c(N5CC(C)(O)C6(CC6)C5)c4)c3O)cc2Cl)c1=O` (stereo not drawn) [Example 849, 1-(3-Chloro-3′-(6-cyclopropyl-5-(7-hydroxy-7-methyl-5-azaspiro[2.4]heptan-5-yl)pyridin-3-yl)-5′-fluoro-2′-hydroxy-[1,1′-biphenyl]-4-yl)-3-methyl-1H-imidazol-2(3H)-one], in experiment [1] (BRD4 BDII AlphaScreen assay, read-out: BRD4 BD2 IC50), the pIC50 was 9.00 to 11.00. For the same molecule, the GI50 in experiment [2] (SKM-1, SKM-1 antiproliferation assay) lay within 30 to 300 nM.
